Test results taken from ChEMBL document CHEMBL1201862, “PubChem BioAssay data set” (2004).
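Dose response: 5 concentrations. Exposure: 48 h. Format: 96-well plates. Endpoint: linear interpolation; highest concentration if not reached. At the GI50, growth is halved.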 Activity calls are given as the source filed them. Rule as the data show it: active = GI50 up to about 1.1 µM and inactive = higher.

Assays:
Experiment in all cases: inhibition of tumour cell growth, NCI panel, 48 h
M14 = tested on: M14
CCRF-CEM = tested on: CCRF-CEM
SR = tested on: SR
NCI-H522 = tested on: NCI-H522
OVCAR-4 = tested on: OVCAR-4
SK-OV-3 = tested on: SK-OV-3
HCT-116 = tested on: HCT-116
Hs-578T = tested on: Hs-578T
NCI-H460 = tested on: NCI-H460
EKVX = tested on: EKVX
RXF 393 = tested on: RXF 393
NCI-H226 = tested on: NCI-H226
SF-268 = tested on: SF-268
SK-MEL-2 = tested on: SK-MEL-2
DU-145 = tested on: DU-145
OVCAR-3 = tested on: OVCAR-3
OVCAR-8 = tested on: OVCAR-8
UACC-62 = tested on: UACC-62
786-0 = tested on: 786-0
A498 = tested on: A498

Measured: GI50

Nc1nc(CCl)nc(N2CCOCC2)n1
inactive: M14 27.1 µM | CCRF-CEM 18.6 µM | SR 21.3 µM | NCI-H522 3.4 µM | OVCAR-4 17.4 µM | SK-OV-3 45.6 µM | HCT-116 21.5 µM | Hs-578T 38.1 µM | NCI-H460 17.7 µM | EKVX 17.6 µM | RXF 393 36.6 µM | NCI-H226 37.4 µM | SF-268 33.7 µM | SK-MEL-2 > 100 µM | DU-145 38.4 µM | OVCAR-3 > 10 µM | OVCAR-8 34.8 µM | UACC-62 15.8 µM | 786-0 14 µM | A498 33 µM

CCOC(=O)/C=C(/OCC)[C@@H]1C(C(=O)c2ccc(Cl)cc2)[C@H]1/C(=C\C(=O)OCC)OCC (stereo not given in full)
inactive: M14 > 100 µM | CCRF-CEM 57.4 µM | SR 8.73 µM | NCI-H522 > 45.2 µM | OVCAR-4 > 100 µM | SK-OV-3 > 100 µM | HCT-116 15.5 µM | Hs-578T > 100 µM | NCI-H460 > 100 µM | EKVX > 100 µM | RXF 393 96.8 µM | NCI-H226 > 100 µM | SF-268 > 100 µM | SK-MEL-2 > 100 µM | DU-145 > 100 µM | OVCAR-3 > 100 µM | OVCAR-8 > 100 µM | UACC-62 > 30.7 µM | 786-0 > 100 µM | A498 > 100 µM

OCC1OC(O[C@H]2CN3[C@H](O)[C@@H](O)[C@H](O)[C@H]3C2O)C(O)C(O)C1O (stereo not given in full)
inactive: M14 > 100 µM | CCRF-CEM > 100 µM | SR > 100 µM | NCI-H522 > 100 µM | OVCAR-4 > 100 µM | SK-OV-3 > 100 µM | HCT-116 > 100 µM | Hs-578T > 100 µM | NCI-H460 > 100 µM | EKVX > 100 µM | RXF 393 > 100 µM | NCI-H226 > 100 µM | SF-268 > 100 µM | SK-MEL-2 > 100 µM | DU-145 > 100 µM | OVCAR-3 > 100 µM | OVCAR-8 > 100 µM | UACC-62 > 100 µM | 786-0 > 100 µM | A498 > 100 µM

COc1cc2c(c(OC)c1OC)-c1c(cc3c(c1OC)OCO3)CC(C)C(C)(O)C2OC(=O)c1ccccc1 (stereo not given)
inactive: M14 34.4 µM | CCRF-CEM 25.9 µM | SR 17.7 µM | NCI-H522 24.6 µM | OVCAR-4 35.3 µM | SK-OV-3 60.4 µM | HCT-116 31.4 µM | Hs-578T 32.5 µM | NCI-H460 33.3 µM | EKVX 36 µM | RXF 393 27.9 µM | NCI-H226 29.4 µM | SF-268 53.5 µM | SK-MEL-2 25 µM | DU-145 69.8 µM | OVCAR-3 29.9 µM | OVCAR-8 40.6 µM | UACC-62 56 µM | 786-0 55.1 µM | A498 39.8 µM

COC(=O)[C@H](CCSC)NC(=O)c1ccc(CNC(=O)/C=C/c2cccc(Oc3ccccc3)c2)cc1
inactive: M14 13.5 µM | CCRF-CEM 33.1 µM | SR 19.7 µM | NCI-H522 25.8 µM | OVCAR-4 33.6 µM | SK-OV-3 > 100 µM | HCT-116 > 100 µM | Hs-578T 59.2 µM | NCI-H460 60.5 µM | EKVX 67.3 µM | RXF 393 16.7 µM | NCI-H226 > 23.8 µM | SF-268 > 59.2 µM | SK-MEL-2 14.8 µM | DU-145 > 100 µM | OVCAR-3 23.3 µM | OVCAR-8 > 100 µM | UACC-62 18.2 µM | 786-0 > 100 µM | A498 19.8 µM

NC1CCCCC1NCCNC1CCCCC1N (stereo not given)
inactive: M14 > 100 µM | CCRF-CEM 36.4 µM | SR > 100 µM | NCI-H522 > 100 µM | OVCAR-4 47.2 µM | SK-OV-3 > 100 µM | HCT-116 47.5 µM | Hs-578T 44.7 µM | NCI-H460 > 100 µM | EKVX > 100 µM | RXF 393 > 100 µM | NCI-H226 > 100 µM | SF-268 > 100 µM | SK-MEL-2 > 100 µM | DU-145 > 100 µM | OVCAR-3 > 100 µM | OVCAR-8 > 100 µM | UACC-62 > 100 µM | 786-0 > 100 µM | A498 > 100 µM
